{
  "source": "patent US20150299648A1",
  "about": "“IMPROVED CULTIVATION MEDIA AND PROCESS FOR IMPROVED PROTEIN PRODUCTION BY PICHIA STRAINS” (priority 2012, published 2015)",
  "key": {"[1]": {"assay": "Osmolality of sugar and sugar alcohol solutions (osmometer)", "format": "physicochemical", "settings": "500 mM in water", "method": "The sugar and sugar alcohol solutions used as osmoprotectant supplements were prepared at 500 mM in water and their osmolalities were measured using Osmometer (Multi-somotte, Model 2430, Precision Systems Inc, MA, USA). The osmolality of solution was directly proportional to the concentration of component in solution. For instance there was a linear relationship between sorbitol concentration (mM) and osmolality of the solution (mOsm/kg) as shown in FIG. 1A. The osmolalities of maltitol, sorbitol, glycerol, and glucose at 500 mM in water were 590±4, 544±3, 541±3, and 568±0 mOsm/kg respectively (FIG. 1B). The osmolaties of sorbose, mellibiose, ribose, quinic acid and myo-inositol at 500 Mm in water were (480±5), (500±5), (470±5), (480±5) AND (510±10), respectively."}, "[2]": {"system": "P. pastrois strain yGLY21058", "assay": "Fermentability of sugars or sugar alcohols on M agar plate", "format": "cell-based, Pichia pastoris", "settings": "6 days at 30° C.", "method": "The 1 mL of RCB (Research Cell Bank in 20% of glycerol) for P. pastrois strain yGLY21058 producing glycosylated insulin precursor (GIP) was inoculated in 200 mL of Seed medium (4% glycerol, 1% yeast extract, 2% soytone, 1.34% YNB without amino acids, 0.23% K2HPO4, 1.19% KH2PO4, 8 μg/L biotin) and cultivated for 48 h at 24° C. The cell pellet was harvested by centrifugation at 4,000 rpm for 10 min and re-suspended with PBS buffer (pH 7.4) to wash the cell twice. The 0.1 mL of cell suspension with wash buffer was transferred and spread onto the minimal agar plate containing each sugar or sugar alcohol (1% w/v), which is listed in Table 1.\nYPD (1% yeast extract, 2% yeast peptone, and 1% glucose) agar plate was used for the positive control and a minimal agar plate without carbon sources (M) was used for negative control. Growth of Pichia pastoris on M agar plate containing single carbon source was categorized as no (−), slow (+), moderate (++), and fast (+++) colony formation for 6 days in Table 1."}, "[3]": {"system": "P. pastoris strain (YGLY27893) which produces an antibody Fc-fragment", "assay": "Effect of maltitol with or without sorbitol on cell robustness", "format": "cell-based, Pichia pastoris", "settings": "BSGY medium with maltitol 50 g/L", "method": "Using a P. pastoris strain (YGLY27893) which produces an antibody Fc-fragment, the osmoprotective effect of combining sorbitol and maltitol was tested as follows: sorbitol(−) maltitol(−); sorbito(+) maltitol(−); […] maltito(+). The concentrations of sorbitol and maltitol were 18 g/L and 50 g/L respectivetly. (Note: Sorbitol(+) maltito(−) is identical to BSGY medium).\nThe cell growth was expressed as [Cell (t)]/[Cell (0)]×100(%), here, [Cell (t)] is the wet cell weight at t (h) of induction and [Cell (0)] is the wet cell weight at 0 (h) of induction, because the cell density at the beginning of induction in each case was different due to absence or presence of sorbitol as a fermentable sugar. The cell was heavily lysed around 80 h of induction in BSGY medium without maltitol, whereas the cell was continuously grown for 150 h of induction in BSGY medium with maltitol (FIG. 4). I re-draw the FIG. 4 as shown in the last page (p 47 after FIG. 5)."}, "[4]": {"system": "glycoengineered P. pastoris (YGLY13979) strain producing a monoclonal antibody", "assay": "Effect of maltitol and Mix2 supplements on fed-batch fermentation profile", "format": "cell-based, Pichia pastoris", "settings": "for Cell lysis: methanol induction phase", "method": "The osmoprotective effect of maltitol (50 g/L) in combination with a supplement comprising a mixture of nutrients (Mix2) consisting of amino acid (AA1), vitamins (Vit4), trace metal ions (TM4), and basal salts (BSM2) as described in Table 2 was also evaluated using a glycoengineered P. pastoris (YGLY13979) strain producing a monoclonal antibody was cultivated in 1 L bioreactors (Biostat Q-plus, Satorius, Germany).\nA P. pastoris YGLY13979 producing a monoclonal antibody was cultivated in 1 L bioreactors (Biostat Q-plus, Satorius, Germany). For fermentation in 1 L bioreactor, a vial (1 mL) of RCB (Research Cell Bank) was inoculated into 200 mL of BSGY medium in 1 L-baffled flask. The culture incubated at 24° C., while shaking on an orbital shaker at 180 rpm for 48±4 h. The bioreactor was inoculated with a 10% volumetric ratio of seed to initial BSGY medium. Cultivation conditions were following: temperature set at 24±0.5° C., pH controlled at 6.5±0.1 with 30% ammonium hydroxide, dissolved oxygen was maintained at 20% of saturation by cascading agitation rate on the addition of pure oxygen to the fixed airflow rate of 0.7 vvm. The fermentation profile of the production strain was examined using four different cultivation conditions after batch phase.\nFor the control, a 50% glycerol solution containing 12.5 mL/L of PTM1 salts (6.5 g FeSO4.7H2O, 2.0 g ZnCl2, 0.6 g CuSO4.5H2O, 3.0 g MnSO4.7H2O, 0.5 g CoCl2.6H2O, 0.2 g NaMoO4.2H2O, 0.2 g biotin, 80 mg NaI, 20 mg H3BO4 per L) was fed constantly at an initial rate of 0.08 h^−1 for 8 h After depletion of the initial glycerol (4%).\nFor Mix2, 10 mL AA1, 4 mL Vit4, 4 mL TM4, and 4 mL BSM2 were mixed with 62.5 mL of 80% glycerol and 15.5 mL of water. The Mix2 solution was fed during the glycerol fed-batch period instead of regular glycerol solution, which was used for the control.\nFor Maltitol, 43.5 mL of 80% matitol solution was added into bioreactor to achieve 50 g/L concentration at the end of glycerol fed-batch phase.\nFor Maltitol+Mix2, two conditions of Maltitol and Mix2 were combined.\nInduction was initiated after a 30 min starvation phase when methanol was fed. Methanol containing 12.5 mL/L of PTM1 salts (6.5 g FeSO4.7H2O, 2.0 g ZnCl2, 0.6 g CuSO4.5H2O, 3.0 g MnSO4.7H2O, 0.5 g CoCl2.6H2O, 0.2 g NaMoO4.2H2O, 0.2 g biotin, 80 mg NaI, 20 mg H3BO4 per L) was fed constantly starting at 1.33 g/L/h under methanol limited condition. Agitation speed was changed from cascade mode with agitation speed and pure oxygen."}},
  "data": [
    {"smiles": "OC[C@@H](O)[C@@H](O[C@H]1O[C@H](CO)[C@@H](O)[C@H](O)[C@H]1O)[C@H](O)[C@@H](O)CO", "note": "[Maltitol, 4-O-α-glucopyranosyl-D-sorbitol]", "values": [
      {"measurement": "Osmolality of solution", "setting": "[1]", "value": "590±4", "unit": "mOsm/kg"},
      {"measurement": "Fermentability category from colony formation on the plate", "setting": "[2]; minimal agar plate", "value": "strict non-fermentable substrates"},
      {"measurement": "Growth on M agar", "setting": "[2]; single carbon source 1% w/v", "value": "−"},
      {"measurement": "Time of continuous cell growth in induction", "setting": "[3]", "value": 150, "unit": "h"},
      {"measurement": "Increase of maximum titer of anti-Her2 monoclonal antibody over control culture", "setting": "[4]; 5% maltitol, 600 mOsm/kg in induction phase", "value": 120, "unit": "%"},
      {"measurement": "Cell lysis", "setting": "[4]; vs BSGY control", "value": "reduced the cell lysis significantly"},
      {"measurement": "Cell lysis", "setting": "[4]; vs BSGY control, listed as maltitol", "value": "significantly reduced"},
      {"measurement": "Effective range of concentration in BSGY medium", "setting": "[4]; to increase and maintain osmolality during induction phase", "value": "higher than 25 g/L"},
      {"measurement": "Cell yield", "setting": "[4]; vs BSGY control", "value": "slight reduction of cell yield"}
    ]}
  ]
}
